Like-named read-outs stand apart in the source and are kept apart here.
Columns and labels:
[1] = biological target: T1, purified recombinant human PARP (Homo sapiens, UniProt P09874); assay: PARP enzyme assay ([3H]NAD incorporation, scintillation counting); format: biochemical
T1 construct: purchased Trevigen (Gaithersburg, Md.)
Experimental: The reaction was initiated by incubating the mixture at 25° C. After 15 minutes' incubation, the reaction was terminated by adding 500 microliters of ice cold 20% (w/v) trichloroacetic acid. The precipitate formed was transferred onto a glass fiber filter (Packard Unifilter-GF/B) and washed three times with ethanol. After the filter was dried, the radioactivity was determined by scintillation counting.

rabbits = details: cited from earlier work
rats = details: trinitrobenzene sulfonic acid in 50% ethanol; cited from earlier work
[2] = test system: human fibroblast cells lines (either W138 or BJ cells); assay: Extending proliferative capacity and lifespan of cells; format: cell-based; details: untreated cells stop dividing after about 40 days
Experimental: At the time of subdivision, the media is aspirated, and the cells rinsed with phosphate buffer saline (PBS) and then trypsinized. The cells are counted with a Coulter counter and plated at a density of 10^5 cells per cm^2 in 6-well tissue culture plates in DMEM/199 medium supplemented with 10% bovine calf serum and varying amounts (0.10 uM, and 1 mM: from a 100×stock solution in DMEM/M199 medium) of a PARP inhibitor of Formula I as disclosed herein. This process is repeated every 7 days until the cell appear to stop dividing. The untreated (control) cells reach senescence and stop dividing after about 40 days in culture. […] The cells treated with 1 mM 3-AB will still divide after 60 days in culture.

male Long-Evans rats = assay: Focal cerebral ischemia (right distal MCA cauterization with bilateral temporary CCA occlusion), infarct volume by TTC staining; details: in vivo administration, focal cerebral ischemia model in the rat
Experimental: Focal cerebral ischemia was produced by cauterization of the right distal MCA (middle cerebral artery) with bilateral temporary common carotid artery occlusion in male Long-Evans rats for 90 minutes. All procedures performed on the animals were approved by the University Institutional Animal Care and Use Committee of the University of Pennsylvania. A total of 42 rats (weights: 230-340 g) obtained from Charles River were used in this study. The animals fasted overnight with free access to water prior to the surgical procedure.
Two hours prior to MCA occlusion, varying amounts (control, n=14; 5 mg/kg, n=7; 10 mg/kg, n=7; 20 mg/kg, n=7; and 40 mg/kg, n=7) of the compound, 3,4-dihydro-5-[4-(1-piperidinyl)-butoxy]-1(2H)-isoquinolinone (“DPQ”) were dissolved in dimethyl sulfoxide (DMSO) using a sonicator. […]
Two hours after MCA occlusion, the animals were given the same doses of the PARP inhibitor as in the pre-treatment. […] To avoid artifacts due to edema, the-damaged area was calculated by subtracting the area of the normal tissue in the hemisphere ipsilateral to the stroke from the area of the hemisphere contralateral to the stroke, by the method of Swanson et al., “A Semiautomated Method for Measuring Brain Infarct Volume”, J. Cereb. […] The total volume of infarction was calculated by summation of the damaged volume of the brain slices.

[3] = in vivo; cited from earlier work
[4] = PARP inhibition, unit μM, read-out: Approximate IC50's
[5] = PARP inhibition, unit given as uM, read-out: Approximate IC50's
[6] = PARP inhibition, unit inferred, read-out: Approximate IC50's

T1 sequence (P09874 whole entry): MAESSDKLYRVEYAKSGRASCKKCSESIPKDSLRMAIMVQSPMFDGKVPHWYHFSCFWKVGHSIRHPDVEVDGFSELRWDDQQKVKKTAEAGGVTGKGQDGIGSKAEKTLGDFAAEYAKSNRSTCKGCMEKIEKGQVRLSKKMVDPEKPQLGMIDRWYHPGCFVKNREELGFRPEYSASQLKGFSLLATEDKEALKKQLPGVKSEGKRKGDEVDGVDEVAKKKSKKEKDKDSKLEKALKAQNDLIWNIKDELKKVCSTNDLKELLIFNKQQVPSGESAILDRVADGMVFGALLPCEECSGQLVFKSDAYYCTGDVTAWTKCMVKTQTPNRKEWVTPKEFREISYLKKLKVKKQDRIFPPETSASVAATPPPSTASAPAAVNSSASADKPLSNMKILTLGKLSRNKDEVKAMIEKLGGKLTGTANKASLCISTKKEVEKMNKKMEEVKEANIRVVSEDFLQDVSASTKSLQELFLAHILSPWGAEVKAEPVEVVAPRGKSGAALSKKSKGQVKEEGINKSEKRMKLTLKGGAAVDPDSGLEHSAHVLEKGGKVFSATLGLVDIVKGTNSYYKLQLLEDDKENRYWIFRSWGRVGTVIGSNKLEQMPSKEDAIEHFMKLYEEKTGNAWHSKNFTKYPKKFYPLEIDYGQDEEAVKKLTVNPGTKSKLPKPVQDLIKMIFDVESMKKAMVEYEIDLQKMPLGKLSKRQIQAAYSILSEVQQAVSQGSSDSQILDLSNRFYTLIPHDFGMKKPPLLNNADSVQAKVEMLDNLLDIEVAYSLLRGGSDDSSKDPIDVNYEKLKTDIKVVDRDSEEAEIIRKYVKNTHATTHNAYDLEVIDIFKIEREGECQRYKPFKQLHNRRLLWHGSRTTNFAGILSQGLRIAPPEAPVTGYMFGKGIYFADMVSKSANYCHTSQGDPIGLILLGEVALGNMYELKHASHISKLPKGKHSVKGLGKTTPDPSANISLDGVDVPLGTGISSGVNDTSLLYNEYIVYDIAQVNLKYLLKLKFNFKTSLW

Q: For `Nc1ccc2c(c1)[nH]c(=O)c1ccccc12`, which IC50 [1, 4] is on record?
A: 4 µM

Q: With `O=c1[nH]c2cc3ccccc3cc2c2ccccc12` as the compound, how does the IC50 [1, 4] read?
A: 100 µM

Q: With `O=c1[nH]c2ccc([N+](=O)[O-])cc2c2ccccc12` as the compound, how does the IC50 [1, 4] read?
A: 0.9 µM

Q: Which IC50 [1, 4] does the source give for `O=c1[nH]c2ccccc2c2ccccc12` here?
A: 5.2 µM

Q: Which IC50 [1, 4] does the source give for `O=c1[nH]c2ccc(Cl)cc2c2ccccc12` here?
A: 0.7 µM

Q: With `O=c1[nH]c2ccc(Br)cc2c2ccccc12` as the compound, how does the IC50 [1, 4] read?
A: 1.1 µM

Q: For `O=C1NCC([N+](=O)[O-])c2ccccc21` (stereo not shown), which IC50 [1, 5] is on record?
A: 1.6 µM

Q: Which IC50 [1, 5] does the source give for `O=c1[nH]c(-c2ccccc2)cc2ccccc12` here?
A: 1.3 µM

Q: With `O=c1[nH]ccc2c([N+](=O)[O-])cccc12` as the compound, how does the IC50 [1, 5] read?
A: 3.4 µM

Q: With `O=c1[nH]c2cc(F)ccc2c2ccccc12` as the compound, how does the IC50 [1, 4] read?
A: 0.2 µM

Q: With `O=C1NCC2c3ccccc3Oc3cccc1c32` (stereo not shown) as the compound, how does the IC50 [1, 6] read?
A: 0.2 µM

Q: Which IC50 [1, 6] does the source give for `O=c1[nH]nc2c3c(cccc13)Oc1ccccc1-2` here?
A: 0.08 µM

Q: With `O=c1[nH]nc2c3c(cccc13)Sc1ccccc1-2` as the compound, how does the IC50 [1, 6] read?
A: 0.11 µM

Q: With `O=c1[nH]nc2c3c(cccc13)-c1ccccc1-2` as the compound, how does the IC50 [1, 6] read?
A: 0.14 µM

Q: With `Nc1ccc2c(c1)-c1n[nH]c(=O)c3cccc-2c13` as the compound, how does the IC50 [1, 6] read?
A: 0.068 µM

Q: Which IC50 [1, 6] does the source give for `O=c1[nH]nc2c3c(cccc13)CCc1ccccc1-2` here?
A: 0.4 µM

Q: Which IC50 [1, 6] does the source give for `O=c1[nH]nc2c3c(cccc13)-c1ccc([N+](=O)[O-])cc1-2` here?
A: 0.056 µM

Q: With `O=c1[nH]nc2c3c(cccc13)Oc1ccc([N+](=O)[O-])cc1-2` as the compound, how does the IC50 [1, 6] read?
A: 0.062 µM

Q: With `Nc1ccc2c(c1)-c1n[nH]c(=O)c3cccc(c13)O2` as the compound, how does the IC50 [1, 6] read?
A: 0.046 µM

Q: For `COC(=O)c1c[nH]c(=O)c2ccccc12`, which IC50 [1, 6] is on record?
A: 1.1 µM

Q: For `O=C1CNC(=O)c2cc(Cl)ccc2N1`, which IC50 [1, 6] is on record?
A: 1.6 µM

Q: For `O=c1[nH]nc(-c2ccc(Cl)cc2)c2ccccc12`, which IC50 [1, 6] is on record?
A: 0.36 µM

Q: Which IC50 [1, 6] does the source give for `O=C1NCC(c2ccccc2)Oc2ccccc21` (stereo not shown) here?
A: 1.9 µM

Q: Which IC50 [1, 6] does the source give for `O=c1[nH]cc(Br)c2c(O)cccc12` here?
A: 0.6 µM

Q: With `O=C1NCc2cccc3cccc1c23` as the compound, how does the IC50 [1] read?
A: 0.54 µM

Q: With `Nc1ccc2c3c(cccc13)C(=O)NC2=O` as the compound, how does the IC50 [1] read?
A: 0.09 µM

Q: Which IC50 [1, 6] does the source give for `O=C1NC(=O)c2ccc(S(=O)(=O)O)c3cccc1c23` here?
A: 4 µM

Q: Which IC50 [1, 6] does the source give for `O=C1NC(=O)c2ccc(Cl)c3cccc1c23` here?
A: 0.46 µM

Q: With `O=C1NC(=O)c2ccc(SCCO)c3cccc1c23` as the compound, how does the IC50 [1, 6] read?
A: 2.8 µM

Q: Which IC50 [1, 6] does the source give for `O=C1NC(=O)c2cc(O)cc3cccc1c23` here?
A: 0.81 µM

Q: Which IC50 [1, 6] does the source give for `O=C(O)c1cccc2[nH]c(=O)c3ccccc3c12` here?
A: 5.1 µM

Q: Which IC50 [1, 6] does the source give for `O=c1[nH]c2cc([N+](=O)[O-])ccc2c2ccccc12` here?
A: 0.16 µM

Q: With `Nc1cccc2[nH]c(=O)c3ccccc3c12` as the compound, how does the IC50 [1, 6] read?
A: 0.1 µM

Q: With `O=c1[nH]nc(-c2ccc(N3CCCCC3)c([N+](=O)[O-])c2)c2ccccc12` as the compound, how does the IC50 [1, 6] read?
A: 0.3 µM

Q: Which IC50 [1, 6] does the source give for `CN(C)c1ccc(-c2n[nH]c(=O)c3ccccc23)cc1[N+](=O)[O-]` here?
A: 0.68 µM

Q: Which IC50 [1, 6] does the source give for `CN(C)c1ccc(-c2n[nH]c(=O)c3ccccc23)cc1N` here?
A: 0.22 µM

Q: For `O=c1[nH]nc(CN2CCN(c3ccccc3)CC2)c2ccccc12`, which IC50 [1, 6] is on record?
A: 4 µM

Q: For `O=c1[nH]nc(CN2CCN(c3ccc(Cl)cc3)CC2)c2ccccc12`, which IC50 [1, 6] is on record?
A: 1.3 µM

Q: Which IC50 [1, 6] does the source give for `Nc1cccc2c1[nH]c(=O)c1ccccc12` here?
A: 0.76 µM

Q: With `CN(C)c1ccc2c(c1)[nH]c(=O)c1ccccc12` as the compound, how does the IC50 [1, 6] read?
A: 0.31 µM

Q: Which reduced infarct size (rabbits; 1 mg/kg single injection) does the source give for `Oc1cccc2c(O)nccc12` [1,5-dihydroxyisoquinoline] here?
A: 38-48%

Q: With `NC(=O)c1cccc(N)c1` [Compound 3-AB, 3-aminobenzamide] as the compound, how does the “inflammatory response in colitis” value (rats) read?
A: reduced the inflammatory response

Q: What about the “reductions in infarct size in the heart” value (rabbits; 10 mg/kg single injection one minute before occlusion or before reperfusion) of the same compound?
A: 32-42%

Q: And the “effect on lifespan of the cells” value ([2]; 10 uM)?
A: little or no effect

Q: And the “effect on lifespan of the cells” value ([2]; 100 uM)?
A: lengthen the lifespan of the cells

Q: What about the “effect on lifespan and proliferative capacity of the cells” value ([2]; 1 mM) of the same compound?
A: dramatically increases the lifespan and proliferative capacity of the cells

Q: What about the “time in culture at which cells still divide” value ([2]; 1 mM) of the same compound?
A: > 60 days

Q: With `O=C1NCCc2c(OCCCCN3CCCCC3)cccc21` [DPQ, 3,4-dihydro-5-[4-(1-piperidinyl)-butoxy]-1(2H)-isoquinolinone] as the compound, how does the “effect on infarct volume, overall” value (male Long-Evans rats) read?
A: substantial reduction in infarct volume

Q: Which IC50 [1, 5] does the source give for `NC(=O)c1cccc2cccc(C(=O)O)c12` [drawing 17] here?
A: 0.25 µM

Q: For `O=C1NCCc2c(OCCCCN3CCCCC3)cccc21` [drawing 52], which IC50 [1] is on record?
A: 1.9 µM

Q: With `NC(=O)c1cccc2cccc(C(=O)O)c12` [drawing 59] as the compound, how does the IC50 [1, 6] read?
A: 0.25 µM

Q: With `NC(=O)c1cccnc1` [nicotinamide] as the compound, how does the “delayed, NO-mediated vascular failure in endotoxic shock” value [3] read?
A: protects against delayed, NO-mediated vascular failure
